Test results taken from patent publication US20200354327A1, “COMPOUND HAVING STAT3 INHIBITORY ACTIVITY AND USE THEREOF” (CYTUS H&B CO., LTD., priority 2017, published 2020).

Tests used:
[1] = tested on: p-STAT3, Cleaved Caspase-3, Bcl-XL, Ki67 and MMP2; assay: Tumor histology and immunostaining of xenograft tumor sections; format: in vivo, BALB/c nude mice; settings: 7th day of drug administration
Description: Tumors isolated from mice were fixed with formalin and embedded with paraffin, and sections were cut from each paraffin block. For histological evaluation, the sections were stained with hematoxylin-eosin, phospho-STAT3, cleaved caspase-3, Bcl-XL, Ki67, and pro/active MMP-2, respectively. The paraffin of the sections was removed, moisture was removed using alcohol, and then the sections were heated in 10 mM sodium citrate buffer (pH: 6.0) for 5 minutes with microwaves. Non-specific binding was removed by reacting the sections with a PBS solution containing 2.5% bovine serum albumin and 2% normal goat serum for 1 hour. The sections were reacted with antibodies against phospho-STAT3, cleaved caspase-3, Bcl-XL, Ki67, and pro/active MMP-2 diluted 1:100 overnight at 4° C. As a negative control, the sections were reacted with a dilution solution in a state of not containing primary antibodies. The sections were then washed and reacted with secondary antibodies labeled with appropriate biotin, and the location and expression of the bound antibodies were confirmed using an avidin-biotin-horseradish complex. For histological evaluation, each stained section was observed under a microscope at 100-fold and 400-fold magnifications and analysis was performed using a Sony XC-77 CCD camera and a microcomputer imaging device Model 4 image analysis system.

STAT3 [2] = target: T1, STAT3 (Homo sapiens, UniProt P40763); assay: STAT3-TA-luciferase assay in HEK293T cells; format: cell-based
T1 sequence (P40763 whole entry): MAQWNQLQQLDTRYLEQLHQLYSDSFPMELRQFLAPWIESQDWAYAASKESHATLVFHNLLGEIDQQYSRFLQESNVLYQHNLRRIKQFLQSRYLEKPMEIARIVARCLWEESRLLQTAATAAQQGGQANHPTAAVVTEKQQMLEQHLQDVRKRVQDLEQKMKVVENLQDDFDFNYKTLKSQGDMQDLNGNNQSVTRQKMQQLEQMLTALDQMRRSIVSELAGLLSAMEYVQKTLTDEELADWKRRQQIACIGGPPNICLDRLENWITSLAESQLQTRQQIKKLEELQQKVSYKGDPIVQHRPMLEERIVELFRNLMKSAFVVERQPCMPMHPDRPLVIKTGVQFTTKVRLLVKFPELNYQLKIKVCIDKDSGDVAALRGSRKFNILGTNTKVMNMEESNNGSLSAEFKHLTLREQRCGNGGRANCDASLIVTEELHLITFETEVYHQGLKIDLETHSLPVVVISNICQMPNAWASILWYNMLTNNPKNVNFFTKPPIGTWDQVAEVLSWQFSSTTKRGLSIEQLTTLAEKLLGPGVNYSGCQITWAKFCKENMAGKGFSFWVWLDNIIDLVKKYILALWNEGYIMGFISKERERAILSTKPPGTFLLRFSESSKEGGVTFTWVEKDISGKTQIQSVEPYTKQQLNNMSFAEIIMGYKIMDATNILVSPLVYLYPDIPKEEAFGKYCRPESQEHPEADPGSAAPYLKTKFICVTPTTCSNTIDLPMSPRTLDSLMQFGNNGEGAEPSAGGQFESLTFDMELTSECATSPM
Description: Assay on the expression of luciferase was performed as previously described (Jung J E, et al. FASEB J. 19, 1296-1298 (2005)). Plasmid DNA having STAT3-TA-luciferase as a reporter construct was temporarily expressed in HEK293T cells using Lipofectamine 2000, the HEK293T cells were treated with ODZ10117, the level of STAT3 expression was measured using a luminometer, and the inhibitory effect was compared with that of the DMSO-treated group.

STAT3 [3] = target: T1, STAT3; assay: Western blot in U87-MG and MDA-MB-231 cells; format: cell-based; design: endogenous in cells; host or cells: L540, HDLM-2, U87-MG, MDA-MB-231, further human glioblastoma and breast cancer lines
Description: The human cancer cell lines used in the experiment were U87-MG (human malignant glioblastoma) and MDA-MB-231 (human malignant breast cancer) cell lines, and various kinds of human-derived blood and solid cancer cells including these human cancer cell lines were cultured as previously described (Jung J E, et al. FASEB J. 19, 1296-1298 (2005)). The human Hodgkin lymphoma cancer cell lines L540 and HLDM-2 used in the experiment were obtained from the German Collection of Microorganism and Cell Cultures (DSMZ, Germany) and cultured using RPMI 1640 medium containing 20% FBS in a 5% CO2 incubator at a temperature of 37° C.
(§1) Western blot analysis was performed (Jung J E, et al. FASEB J. 19, 1296-1298 (2005)). The cells were washed two times with PBS and suspended in the lysate (50 mM Tris-HCl, pH 7.4, 350 mM NaCl, 1% Triton X-100, 0.5% Nonidet P-40, 10% glycerol, 0.1% SDS, 1 mM EDTA, 1 mM EGTA, 1 mM Na3VO4, 1 mM PMSF, protease and phosphorylation inhibitor) and the cell membrane and nuclear membrane were crushed to lyse the cells. The insoluble protein fraction was removed by centrifugation, and the supernatant was mixed with SDS electrophoresis buffer and electrophoresis (SDS-PAGE) was performed to detect the protein with the desired antibody and to confirm the protein expression level.

MDA-MB-231 cells = assay: Cell proliferation assay, MDA-MB-231; format: cell-based, human; settings: MDA-MB-231, by time period, versus DMSO
Description: (§2) Cell proliferation assay was performed as previously described (Won C, et al. Anticancer Res. 30, 481-488 (2010)). In order to analyze the cell proliferation rate, U87-MG and MDA-MB-231 cell lines were dispensed into a 6-well culture dish, then treated with DMSO and ODZ10117 the next day, and stained with crystal violet after 0 h, 24 h, 48 h, and 72 h, and the number of live cells was calculated using a hemocytometer.

STAT3 [4] = assay: Western blot analysis of the 13 selected compounds; format: cell-based; settings: among the 13 selected compounds
Description: as §1

U87-MG cells [5] = assay: Human tumor cell xenograft, U87-MG; format: in vivo, BALB/c nude mice; settings: injected directly into the tumor, versus DMSO
Description: Male Nude Mouse (BALB/cAnNCrj-nu/nu) was purchased from Charles River Japan Inc. (Shin-Yokohama, Japan). The mouse was bred in a clean room in which the temperature and humidity were constantly controlled. The breeding process was carried out according to the method described in the manual for maintenance of laboratory animals in Seoul National University. U87-MG cells or MDA-MB-231 cells were diluted with PBS, suspended in 100 μl of Matrigel at 25% concentration, and injected into the back of mouse and bred for 6 to 10 weeks. Human tumor growth was measured every other day using a vernier caliper from 2 weeks after cell injection. With regard to the degree of inhibition of human tumor cell formation, 40 μM of ODZ10117 was directly injected into the human tumor on days 0, 3, and 5 from week 4 of tumor cell injection. On the 7th day, the mouse was sacrificed to separate the tumor, and the tumor cell inhibitory efficacy of the drug was measured by being compared with that of the control group treated with 1% DMSO.

U87-MG cells [6] = assay: Cell proliferation assay, U87-MG; format: cell-based, human; settings: by time period, versus DMSO
Description: as §2

[7] = tested on: human malignant glioblastoma; assay: Cell viability of human malignant glioblastoma with or without IL-6; format: cell-based; settings: treated with IL-6 for 24 or 48 hours or not; various concentrations
Bcl-2 and Bcl-XL = assay: Real-time polymerase chain reaction of anti-apoptotic genes; format: cell-based, human
Description: RNA isolation and real-time polymerase chain reaction were performed as described previously (Jung J E, et al. FASEB J. 19, 1296-1298 (2005)). Primer specific for human-derived Bcl-XL, Bcl-2, Twist, and GADPH genes were mixed with QuantiFast SYBR Green PCR master mix, and each gene was amplified using the Applied Biosystems 7300 real-time PCR system to compare the expression level.

What does the source list for `Clc1ccc(OCc2noc(C(Cl)(Cl)Cl)n2)c(Cl)c1` [ODZ10117, 3-(2,4-dichloro-phenoxymethyl)-5-trichloromethyl-[1,2,4]oxadiazole]?
activity of caspase-3 in tumor tissues [1]: increased the activity of caspase-3; expression of Bcl-XL in tumor tissues [1]: significantly decreased the expression; expression of Ki67 in tumor tissues [1]: significantly decreased the expression of Ki67; expression of pro/active MMP2 in tumor tissues [1]: significantly decreased the expression; phosphorylation of STAT3 in tumor tissues ([1]; versus DMSO): phosphorylation of STAT3 significantly decreased; promoter activity of STAT3 (STAT3 [2]; compared with DMSO-treated group): significantly decreased the promoter activity of STAT3; transcriptional activity of STAT3 (STAT3 [2]; various concentrations): inhibited the transcriptional activity of STAT3 in a concentration-dependent manner; phosphorylation of tyrosine 705 and serine 727 residues of STAT3 (STAT3 [3]): significantly inhibited phosphorylation of tyrosine 705 and serine 727 residues of STAT3; cell proliferation (MDA-MB-231 cells): effectively inhibited the proliferation of the two cell lines; STAT3 inhibitory action (Western blot) (STAT3 [4]): judged to be extremely superior; tumor growth (U87-MG cells [5]): significantly inhibited tumor growth; cell proliferation (U87-MG cells [6]): effectively inhibited the proliferation of the two cell lines; cell survival [7]: cell survival was inhibited; expression levels of anti-apoptotic genes Bcl-2 and Bcl-XL (Bcl-2 and Bcl-XL): effectively inhibited the expression of these genes
